Drawing on ChEMBL document CHEMBL1201862, “PubChem BioAssay data set” (2004), this text covers IC50 and AC50 for 23 molecules.

As usually defined, the IC50 is the concentration that gives 50% inhibition. By AC50 is commonly meant the concentration at which the activity in the assay is half-maximal.

Active and inactive are the calls of the source.

Data set [1] addresses Nonstructural protein 1 (Influenza A virus, UniProt Q194T2). The data set is classed as functional, Influenza A virus (A/California/07/2009(H1N1)).
In data set [2] the target is Alkaline phosphatase, placental type (Homo sapiens, UniProt P05187). Kind of data set: PLAP enzyme inhibitors, confirmation, biochemical, luminescence (AID 1512). The data set is classed as functional.
Data set [3] deals with T1, Alkaline phosphatase, tissue-nonspecific isozyme (Homo sapiens, UniProt P05186).
T1 sequence (P05186 whole entry): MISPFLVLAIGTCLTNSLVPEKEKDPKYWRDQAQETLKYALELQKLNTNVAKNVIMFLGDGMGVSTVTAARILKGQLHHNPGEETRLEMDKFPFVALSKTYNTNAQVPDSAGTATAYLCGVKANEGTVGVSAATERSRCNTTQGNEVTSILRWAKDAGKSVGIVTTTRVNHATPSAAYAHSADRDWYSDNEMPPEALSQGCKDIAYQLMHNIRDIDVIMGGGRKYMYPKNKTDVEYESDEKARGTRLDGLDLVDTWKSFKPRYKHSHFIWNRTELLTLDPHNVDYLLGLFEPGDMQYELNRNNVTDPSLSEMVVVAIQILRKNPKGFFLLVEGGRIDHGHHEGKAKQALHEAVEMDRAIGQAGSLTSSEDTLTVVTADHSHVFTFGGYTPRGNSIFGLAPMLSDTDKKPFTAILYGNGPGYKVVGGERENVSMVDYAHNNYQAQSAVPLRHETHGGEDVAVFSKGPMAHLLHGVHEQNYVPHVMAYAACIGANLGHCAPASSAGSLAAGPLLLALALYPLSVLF
The data set is described as follows: human TNAP enzyme inhibitors, SAR follow-up, biochemical, luminescent, dose response (AID 1056).

The test system of data set [4] is Escherichia coli. Kind of data set: microbe, parasite or virus in culture.
Data set [5] deals with Glyceraldehyde-3-phosphate dehydrogenase (Homo sapiens, UniProt P04406).
In data set [6] the target is T2, High affinity choline transporter 1 (Homo sapiens, UniProt Q9GZV3).
T2 sequence (Q9GZV3 whole entry): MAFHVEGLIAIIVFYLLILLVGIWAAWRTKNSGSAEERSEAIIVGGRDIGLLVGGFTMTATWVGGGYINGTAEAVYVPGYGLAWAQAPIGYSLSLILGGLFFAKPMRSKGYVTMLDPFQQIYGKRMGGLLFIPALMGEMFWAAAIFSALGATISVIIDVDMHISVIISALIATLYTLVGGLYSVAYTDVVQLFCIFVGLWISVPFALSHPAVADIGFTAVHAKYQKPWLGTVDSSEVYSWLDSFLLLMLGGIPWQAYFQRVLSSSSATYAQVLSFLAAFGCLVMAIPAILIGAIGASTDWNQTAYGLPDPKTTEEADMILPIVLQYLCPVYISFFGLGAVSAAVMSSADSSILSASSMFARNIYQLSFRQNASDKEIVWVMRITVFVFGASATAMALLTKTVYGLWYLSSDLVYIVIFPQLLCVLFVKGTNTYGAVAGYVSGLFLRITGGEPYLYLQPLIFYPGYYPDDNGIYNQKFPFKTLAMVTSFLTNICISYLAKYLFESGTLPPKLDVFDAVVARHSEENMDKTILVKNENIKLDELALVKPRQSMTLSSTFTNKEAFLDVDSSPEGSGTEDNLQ
The data set is described as follows: CHT inhibitors, dose response, cell-based, 5-point CRC, membrane potential dye (AID 504840). The data set is classed as functional.

For data set [7], the target named is Cytochrome P450 3A4 (Homo sapiens, UniProt P08684).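 Also: CYP3A4 tested as one member of a cytochrome P450 panel screen.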
Data set [8] addresses Cytochrome P450 2C9 (Homo sapiens, UniProt P11712).
The target of data set [9] is Genome polyprotein (dengue virus type 2, UniProt P29990). Kind of data set: Dengue-2 NS5 methyltransferase inhibitors, primary screen, biochemical, confirmation dose response (AID 588689). The data set is classed as functional.
In data set [10] the target is T3, Rac GTPase-activating protein 1 (Homo sapiens, UniProt Q9H0H5).
T3 sequence (Q9H0H5 whole entry): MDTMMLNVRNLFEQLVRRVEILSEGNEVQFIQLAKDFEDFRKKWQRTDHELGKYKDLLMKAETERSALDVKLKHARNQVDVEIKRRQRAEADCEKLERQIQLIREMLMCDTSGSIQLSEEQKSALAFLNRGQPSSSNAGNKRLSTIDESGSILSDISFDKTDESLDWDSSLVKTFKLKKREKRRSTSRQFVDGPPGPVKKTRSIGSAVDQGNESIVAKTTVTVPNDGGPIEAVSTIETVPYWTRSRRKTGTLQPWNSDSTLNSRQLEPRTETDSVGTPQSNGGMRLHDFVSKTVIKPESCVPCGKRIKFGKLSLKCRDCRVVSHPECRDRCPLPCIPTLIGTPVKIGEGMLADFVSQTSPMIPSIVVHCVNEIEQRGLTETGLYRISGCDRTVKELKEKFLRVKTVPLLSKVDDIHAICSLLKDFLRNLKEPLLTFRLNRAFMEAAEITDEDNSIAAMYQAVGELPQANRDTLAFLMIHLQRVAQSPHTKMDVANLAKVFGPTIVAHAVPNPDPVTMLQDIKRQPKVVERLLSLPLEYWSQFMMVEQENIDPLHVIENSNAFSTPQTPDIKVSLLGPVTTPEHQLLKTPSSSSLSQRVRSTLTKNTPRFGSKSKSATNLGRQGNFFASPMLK
The data set is described as follows: MgcRacGAP GTPase-activating activity inhibitors, confirmation, biochemical, ADP Hunter fluorescence, primary and confirmatory (AID 624330). The data set is classed as functional.

Data set [11] concerns the target T4, Voltage-gated N-type calcium channel alpha-1B subunit/Amyloid beta A4 precursor protein-binding family A member 1 (Homo sapiens, UniProt Q00975+Q02410). The data set is classed as protein assay.
Data set [12] concerns the target T4, Voltage-gated N-type calcium channel alpha-1B subunit/Amyloid beta A4 precursor protein-binding family A member 1. The data set is classed as protein assay. This is another data set of the same source.
For data set [13], the target named is Cytochrome P450 2D6 (Homo sapiens, UniProt P10635).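 Also: CYP2D6 member of a cytochrome P450 panel assay.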
Data set [14] addresses Cytochrome P450 2C19 (Homo sapiens, UniProt P33261). The data set is described as follows: Cytochrome panel assay with activity outcomes. Panel member name: p450-cyp2c19 Compounds with AC50 equal or less than 10 uM are considered active. The data set is classed as functional. The conditions noted are these: read-out: AC50.
Data set [15] has as its target T5, Microphthalmia-associated transcription factor (Homo sapiens, UniProt O75030).
T5 sequence (O75030 whole entry): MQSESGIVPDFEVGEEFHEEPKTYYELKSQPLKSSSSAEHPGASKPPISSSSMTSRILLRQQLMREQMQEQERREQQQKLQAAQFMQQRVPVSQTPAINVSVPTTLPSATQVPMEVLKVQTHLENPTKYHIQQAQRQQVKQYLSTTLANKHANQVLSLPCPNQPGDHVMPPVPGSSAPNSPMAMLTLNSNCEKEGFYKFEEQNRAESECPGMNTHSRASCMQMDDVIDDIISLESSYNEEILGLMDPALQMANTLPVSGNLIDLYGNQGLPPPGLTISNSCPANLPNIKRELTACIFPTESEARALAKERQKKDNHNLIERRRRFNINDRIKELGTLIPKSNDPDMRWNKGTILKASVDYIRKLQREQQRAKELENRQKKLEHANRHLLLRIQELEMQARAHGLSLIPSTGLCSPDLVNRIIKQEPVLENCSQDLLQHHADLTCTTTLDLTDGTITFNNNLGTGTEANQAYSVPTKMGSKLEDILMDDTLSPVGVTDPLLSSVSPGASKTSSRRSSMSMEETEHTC
The data set is described as follows: TRPM1 promoter luciferase signal decrease, dose response, MITF inhibitor project, cell-based, SK-MEL-5, cherry-picked, set 3 (AID 493073).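 Also: SK-MEL-5 melanoma cells with luciferase driven by the MITF target TRPM1 promoter.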 The data set is classed as functional.

Sequence of Cytochrome P450 3A4 (P08684 whole entry): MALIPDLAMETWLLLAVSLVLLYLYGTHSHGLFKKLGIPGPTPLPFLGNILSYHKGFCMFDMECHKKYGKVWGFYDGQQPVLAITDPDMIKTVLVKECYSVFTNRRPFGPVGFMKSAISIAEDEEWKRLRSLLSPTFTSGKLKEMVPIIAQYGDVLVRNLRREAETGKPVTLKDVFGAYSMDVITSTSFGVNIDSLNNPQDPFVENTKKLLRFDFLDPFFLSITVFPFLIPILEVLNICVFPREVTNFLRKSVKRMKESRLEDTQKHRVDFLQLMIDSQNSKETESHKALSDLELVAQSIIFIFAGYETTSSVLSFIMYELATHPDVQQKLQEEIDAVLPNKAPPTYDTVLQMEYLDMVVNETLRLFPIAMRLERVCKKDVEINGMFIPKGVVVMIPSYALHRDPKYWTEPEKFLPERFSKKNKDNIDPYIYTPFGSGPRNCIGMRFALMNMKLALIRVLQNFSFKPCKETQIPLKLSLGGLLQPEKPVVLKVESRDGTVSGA
Sequence of Alkaline phosphatase, placental type (P05187 whole entry): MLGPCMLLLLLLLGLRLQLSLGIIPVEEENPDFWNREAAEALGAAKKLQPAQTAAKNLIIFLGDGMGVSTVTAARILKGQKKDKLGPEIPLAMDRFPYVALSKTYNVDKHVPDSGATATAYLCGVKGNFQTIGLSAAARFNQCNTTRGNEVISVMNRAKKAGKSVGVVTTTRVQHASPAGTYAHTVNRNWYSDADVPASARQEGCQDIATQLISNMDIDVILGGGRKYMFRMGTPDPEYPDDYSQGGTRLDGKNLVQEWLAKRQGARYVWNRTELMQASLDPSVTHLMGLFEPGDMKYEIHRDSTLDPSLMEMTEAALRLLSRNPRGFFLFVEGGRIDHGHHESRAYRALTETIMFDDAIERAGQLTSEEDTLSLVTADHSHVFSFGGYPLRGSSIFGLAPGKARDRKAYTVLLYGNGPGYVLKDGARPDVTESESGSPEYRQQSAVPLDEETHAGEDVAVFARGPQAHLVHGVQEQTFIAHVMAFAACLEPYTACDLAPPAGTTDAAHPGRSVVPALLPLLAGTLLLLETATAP
Sequence of Glyceraldehyde-3-phosphate dehydrogenase (P04406 whole entry): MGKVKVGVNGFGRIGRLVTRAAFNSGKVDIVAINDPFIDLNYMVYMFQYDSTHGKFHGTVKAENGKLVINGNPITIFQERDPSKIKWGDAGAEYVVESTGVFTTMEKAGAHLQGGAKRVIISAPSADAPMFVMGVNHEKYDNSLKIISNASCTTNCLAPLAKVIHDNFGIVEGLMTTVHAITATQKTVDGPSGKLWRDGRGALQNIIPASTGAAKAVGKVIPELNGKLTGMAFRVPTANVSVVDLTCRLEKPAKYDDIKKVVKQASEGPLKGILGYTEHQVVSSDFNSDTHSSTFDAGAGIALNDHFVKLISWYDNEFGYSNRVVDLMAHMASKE
Sequence of Nonstructural protein 1 (Q194T2 whole entry): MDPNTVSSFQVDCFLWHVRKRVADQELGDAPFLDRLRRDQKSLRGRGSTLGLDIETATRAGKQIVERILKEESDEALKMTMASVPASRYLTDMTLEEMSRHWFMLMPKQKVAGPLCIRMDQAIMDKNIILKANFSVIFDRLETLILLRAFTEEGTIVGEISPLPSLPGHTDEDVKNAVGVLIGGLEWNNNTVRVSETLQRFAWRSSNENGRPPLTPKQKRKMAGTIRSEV
Sequence of Cytochrome P450 2C9 (P11712 whole entry): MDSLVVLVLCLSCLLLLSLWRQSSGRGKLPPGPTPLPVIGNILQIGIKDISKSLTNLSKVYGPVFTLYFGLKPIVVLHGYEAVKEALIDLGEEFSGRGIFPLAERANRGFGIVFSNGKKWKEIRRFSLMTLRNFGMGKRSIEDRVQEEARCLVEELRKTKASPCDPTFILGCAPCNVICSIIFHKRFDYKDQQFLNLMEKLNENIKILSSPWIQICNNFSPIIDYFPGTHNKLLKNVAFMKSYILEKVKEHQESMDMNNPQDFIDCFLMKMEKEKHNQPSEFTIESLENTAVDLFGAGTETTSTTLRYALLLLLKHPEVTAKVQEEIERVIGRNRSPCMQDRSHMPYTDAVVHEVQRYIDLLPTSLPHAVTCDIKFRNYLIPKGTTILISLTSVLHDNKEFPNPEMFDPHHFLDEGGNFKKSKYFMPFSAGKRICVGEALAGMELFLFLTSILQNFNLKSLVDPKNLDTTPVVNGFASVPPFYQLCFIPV
Sequence of Cytochrome P450 2C19 (P33261 whole entry): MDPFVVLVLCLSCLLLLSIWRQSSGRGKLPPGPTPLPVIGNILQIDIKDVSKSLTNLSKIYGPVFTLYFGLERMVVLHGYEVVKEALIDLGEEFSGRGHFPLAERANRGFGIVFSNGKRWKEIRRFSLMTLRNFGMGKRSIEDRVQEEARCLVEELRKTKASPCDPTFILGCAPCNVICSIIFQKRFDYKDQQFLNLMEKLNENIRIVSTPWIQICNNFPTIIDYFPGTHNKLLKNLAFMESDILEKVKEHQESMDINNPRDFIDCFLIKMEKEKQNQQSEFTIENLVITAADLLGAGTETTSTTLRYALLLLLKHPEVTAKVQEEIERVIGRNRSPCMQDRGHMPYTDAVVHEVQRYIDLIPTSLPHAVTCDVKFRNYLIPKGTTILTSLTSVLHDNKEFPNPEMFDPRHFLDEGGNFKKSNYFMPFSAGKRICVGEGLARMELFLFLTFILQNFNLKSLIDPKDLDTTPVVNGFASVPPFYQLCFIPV
Sequence of Cytochrome P450 2D6 (P10635 whole entry): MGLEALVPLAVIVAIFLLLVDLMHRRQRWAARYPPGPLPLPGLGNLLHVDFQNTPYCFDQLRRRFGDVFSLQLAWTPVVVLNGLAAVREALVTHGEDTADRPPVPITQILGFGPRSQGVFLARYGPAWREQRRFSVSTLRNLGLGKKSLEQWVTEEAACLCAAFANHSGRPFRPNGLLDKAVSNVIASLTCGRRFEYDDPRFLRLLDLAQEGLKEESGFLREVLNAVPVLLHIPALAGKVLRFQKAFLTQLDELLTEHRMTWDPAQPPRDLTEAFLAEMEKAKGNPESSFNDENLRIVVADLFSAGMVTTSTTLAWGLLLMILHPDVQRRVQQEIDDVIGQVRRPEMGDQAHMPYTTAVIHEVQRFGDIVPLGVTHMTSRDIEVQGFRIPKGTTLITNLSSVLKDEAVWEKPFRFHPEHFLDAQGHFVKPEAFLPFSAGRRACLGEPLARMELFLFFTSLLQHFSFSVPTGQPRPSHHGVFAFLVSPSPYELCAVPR
Sequence of Genome polyprotein (P29990 2492-3391 limits assumed): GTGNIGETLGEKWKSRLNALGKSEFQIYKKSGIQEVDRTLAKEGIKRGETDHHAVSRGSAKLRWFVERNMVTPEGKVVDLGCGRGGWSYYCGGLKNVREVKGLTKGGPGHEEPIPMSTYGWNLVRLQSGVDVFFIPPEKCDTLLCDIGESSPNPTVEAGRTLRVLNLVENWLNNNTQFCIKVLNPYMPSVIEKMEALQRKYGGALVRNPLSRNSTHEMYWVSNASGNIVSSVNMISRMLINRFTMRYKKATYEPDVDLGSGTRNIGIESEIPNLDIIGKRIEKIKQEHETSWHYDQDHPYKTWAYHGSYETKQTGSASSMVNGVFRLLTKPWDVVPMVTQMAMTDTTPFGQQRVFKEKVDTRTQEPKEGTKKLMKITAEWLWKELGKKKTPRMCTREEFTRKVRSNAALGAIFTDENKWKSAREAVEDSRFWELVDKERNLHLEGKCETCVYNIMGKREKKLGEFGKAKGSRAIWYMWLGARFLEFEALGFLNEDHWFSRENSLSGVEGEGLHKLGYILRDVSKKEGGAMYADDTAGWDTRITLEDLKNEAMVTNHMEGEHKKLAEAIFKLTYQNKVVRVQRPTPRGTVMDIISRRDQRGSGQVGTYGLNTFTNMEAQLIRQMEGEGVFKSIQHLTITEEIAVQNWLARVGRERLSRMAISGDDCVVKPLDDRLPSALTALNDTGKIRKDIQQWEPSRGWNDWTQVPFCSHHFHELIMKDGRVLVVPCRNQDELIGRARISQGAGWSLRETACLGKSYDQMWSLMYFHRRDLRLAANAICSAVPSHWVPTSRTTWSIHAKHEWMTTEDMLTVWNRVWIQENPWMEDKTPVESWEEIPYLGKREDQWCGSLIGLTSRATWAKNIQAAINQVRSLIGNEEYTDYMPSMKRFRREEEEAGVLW

Regarding `COc1ccccc1NC(=O)CSc1nn2c(=O)c(C)nnc2s1`, in data set [1], the IC50 was 16.1 µM (active).

As for `O=C(CSc1nc2ccccc2s1)c1ccc(O)c(O)c1`, the IC50 in data set [2] was 3.42 µM (active); in data set [3] it was 3.03 µM (active).

In the case of `Nc1ccccc1C(=O)NCC1(c2ccccc2)CCCC1`, in data set [4], the AC50 was 113 µM (active).

As for `Nc1nc(=O)n([C@H]2C[C@H](O)[C@@H](CO)O2)cc1F`, the AC50 in [4] is 33.8 µM (active).

As to `O=C(NCCO)c1cc(-c2cc(F)c(Cl)cc2Cl)n[nH]1`, the IC50 is > 25 µM (inactive) in data set [2] and > 100 µM (not active) in [5].

In the case of `CCOC(=O)N1CCN(C(=O)CCCn2c(=S)[nH]c3ccsc3c2=O)CC1`, the IC50 in data set [6] was 12.3 µM (active).

In the case of `C/C=C\C(=O)N(CC)c1ccccc1C`, the AC50 result in [7] was “inconclusive”.

Turning to `COc1ccc(NC(=O)CCNS(=O)(=O)c2ccc3c(c2)c(=O)n(C)c(=O)n3C)cc1`, the AC50 entry in data set [8] and in data set [7] was “inconclusive” in each case.

As to `Cc1cccc(C)c1OCc1nnc2c3cnn(-c4ccccc4)c3ncn12`, the results for the IC50 in data set [2], in data set [5] and in data set [3] were > 100 µM (inactive), > 100 µM (not active) and > 100 µM (inactive), respectively.

`O=C(O)CCCNC(=O)/C=C/c1ccco1`: the IC50 in data set [9] is > 100 µM (active); in data set [10], 151 µM (active); in [11] it was 13.6 µM (active); in data set [12], 17.1 µM (active).

Regarding `CCOC(=O)N1CCN(C(=O)c2ccc3nc(N4CCC(C)CC4)sc3c2)CC1`, the values for the AC50 in data set [13], in data set [7] and in data set [14] were 28.2 µM (inconclusive), “inconclusive” and 11.2 µM (inconclusive), respectively.

Turning to `CC(C)c1ccc(NC(=O)CSc2nc(=O)n(CCCN3CCOCC3)c3c2CCC3)cc1`, the IC50 in [6] is 13.8 µM (active).

With `Cc1cc(NS(=O)(=O)c2ccc(NC(=O)COc3c(C)cc(Br)cc3C)cc2)no1`, the IC50 in data set [6] is 13.2 µM (active).

As to `CCOC(=O)CCc1ccc(NC(=O)/C=C/c2ccc([N+](=O)[O-])o2)cc1`, the AC50 in [15] was 6.83 µM (active).

On to `CN(C(=O)/C=C/c1ccc([N+](=O)[O-])s1)c1ccccc1`, for which, in [15], the AC50 was 9.11 µM (active).

`O=S(=O)(Nc1cccnc1)c1cc(Cl)ccc1F`: the IC50 is > 100 µM (not active) in data set [5] and 46.5 µM (active) in data set [3].

Turning to `O=C(NC1(C(F)(F)F)Oc2ccc(Cl)cc2O1)N1CCC2(CC1)OCCO2` (stereo not drawn), the IC50 in [2] is 9.93 µM (active).

With `O=S(=O)(Nc1ccccc1Br)c1cnc2ccccc2c1`, the IC50 is > 10 µM (inconclusive) in data set [5] and > 10 µM (inactive) in data set [3].

In the case of `CCOC(=O)Cn1nc(C)n(-c2ccc(C)cc2)c1=O`, the AC50 result in [7] is “inconclusive”; in data set [14] it was 28.2 µM (inconclusive).

On to `COC(=O)c1cc(C(=O)c2ccc(Cl)cc2Cl)cn1C`, for which the half-maximal activity concentration (AC50) entry in data set [8] and in data set [7] was “inconclusive” each time.

For the molecule `CCCCN(C)C(=O)NC1(C(F)(F)F)Oc2ccccc2O1`, the IC50 in [2] and in data set [3] was > 100 µM (inactive) each time.

Take `NC(=O)c1c(NC(=O)C(=O)N2CCOCC2)sc2c1CCC2`: the AC50 in data set [4] is 23.9 µM (active).

Turning to `COC1=C(Nc2ccc(C)cc2)C(=O)c2ccccc2C1=O`, the IC50 in [1] is 10 µM (active).
